What was measured:
PKM2 = PKM2 (Homo sapiens, UniProt P14618); conditions: cited from earlier work; for AC50: read-out: AC50 (PKM2 activation); for selectivity for PKM2 versus other pyruvate kinase isozymes: versus PKM1, PKR and PKL
[1] = test system: orthotopically growing human glioblastoma; conditions: mouse models; cited from earlier work
HeLa cells = assay: Cell uptake of [18F]DASA-23 in HeLa cells; type: cell-based, human
Method: Cell Uptake Studies: HeLa cells (0.5×106) were plated into 6-well plates overnight before [^18F]DASA-23 uptake analysis. On the day of the experiment, fresh, prewarmed DMEM containing 25 μCi of [^18F]DASA-23 was added to individual wells (1 ml per well). Cells were incubated with [^18F]DASA-23 at 37° C. and 5% CO2 over a 60 min time course. […] At the specified time points, incubation plates were put on ice, washed with ice-cold phosphate-buffered saline (PBS) (3×500 μl), and lysed in radioimmunoprecipitation assay buffer (Thermo Fisher Scientific Inc.; 500 μl). A portion of the cell lysates (200 μl) were used to determine the amount of decay-corrected radioactivity on a gamma counter (Cobra II Auto-Gamma Counter; Packard Biosciences Co.). The remaining cell lysate was used post radioactive decay for determination of protein concentration using a bicinchoninic acid (BCA) assay (Thermo Fisher Scientific Inc.). Additionally, 10 μl standards from the solution of [^18F]DASA-23 in DMEM (25 μCi/mi) were counted to quantitate the percentage of radiotracer uptake. For efflux studies, HeLa cells were incubated with [^18F]DASA-23 for 60 min and then washed with room temperature Hanks' buffered salt solution (3×500 μl); a subsequent incubation was then completed at 37° C. in fresh, prewarmed radiotracer-free DMEM. At the specified times, samples were processed as described above.

[2] = test system: orthotopic U87 GBM tumors; assay: PET/CT/MR imaging and ex vivo autoradiography of mice bearing orthotopic U87 tumors; type: in vivo, mouse
Method: FIG. 10 illustrates non-invasive imaging of mice bearing orthotopic U87 tumor showing representative T2-weighted MR image and fused PET/CT/MR (10 to 30 min summed activity) of a mouse head bearing an orthotopically grown U87 tumor, white arrows indicate the tumor.
FIG. 11 illustrates non-invasive imaging of mice bearing orthotopic U87 tumor showing an ex vivo autoradiography of coronal mouse brain sections.
FIG. 12B illustrates non-invasive imaging of mice bearing orthotopic U87 tumor showing orthotopic U87 tumor and corresponding contralateral normal brain TAC taken from dynamic [^18F]DASA-23 PET/CT images. Data are means±SD (n=6 animals), ***p<0.001.
PET/MR co-registration confirmed precise correspondence of the [^18F]DASA-23 signal with the location of the intracranial tumors, further confirmed ex vivo by autoradiography.

[3] = In vitro serum stability, mouse serum; type: in vitro ADME; conditions: up to 120 min
Method: (§1) In Vitro Serum Stability Studies: Human and mouse serum (Sigma-Aldrich) were centrifuged at 4° C., with speed of 13,000 rpm for 10 min. Formulated [^18F]DASA-23 (130-150 μCi, 20 μl volume) was added to 330 μl of supernatant. For control, the same volume of radiolabeled compound in 330 μl PBS was used. After vortexing the radiolabeled mixtures, 70 μl aliquots were incubated at 37° C. At predetermined time points (0, 15, 30, 60, and 120 min), 140 μl of ice-cold acetonitrile was added to corresponding samples to stop metabolism. After vortexing and centrifuging samples (10 min, 13,000 rpm), the supernatants were analyzed by analytical HPLC using the same conditions described above.

[4] = In vitro serum stability, human serum; type: in vitro ADME; conditions: up to 120 min
Method: as §1

Sequence of PKM2 (P14618 whole entry, species assumed): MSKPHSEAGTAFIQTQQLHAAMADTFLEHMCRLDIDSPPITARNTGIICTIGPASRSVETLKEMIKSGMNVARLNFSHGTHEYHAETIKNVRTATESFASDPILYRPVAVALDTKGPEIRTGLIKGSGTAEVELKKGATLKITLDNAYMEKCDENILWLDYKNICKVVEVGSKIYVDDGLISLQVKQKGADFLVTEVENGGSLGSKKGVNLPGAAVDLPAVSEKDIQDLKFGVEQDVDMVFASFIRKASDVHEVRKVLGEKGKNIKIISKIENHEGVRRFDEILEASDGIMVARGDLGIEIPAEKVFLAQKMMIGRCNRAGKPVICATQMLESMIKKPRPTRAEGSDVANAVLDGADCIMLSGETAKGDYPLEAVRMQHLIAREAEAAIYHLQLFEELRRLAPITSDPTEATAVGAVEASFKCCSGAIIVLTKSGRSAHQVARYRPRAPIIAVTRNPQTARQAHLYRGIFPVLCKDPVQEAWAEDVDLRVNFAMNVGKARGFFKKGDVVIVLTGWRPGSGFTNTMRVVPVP

Row | Structure (SMILES) | AC50 (PKM2) [nM] | selectivity for PKM2 versus other pyruvate kinase isozymes (PKM2) | detection of PKM2-expressing tumor in vivo [1] | cell uptake (HeLa cells; 30 min) | cell uptake (HeLa cells; 60 min) | tumor delineation by dynamic PET imaging ([2]; orthotopic U87 GBM tumors vs surrounding normal brain, n=6 mice) | tumor uptake in blocking study (autoradiography) ([2]; pre-treatment with TEPP-46 (50 mg/kg) 60 min prior to tracer) | percentage of intact tracer ([3]; 37° C.) [%] | serum stability [3] | percentage of intact tracer ([4]; 37° C.) [%] | serum stability [4]
1 | COc1ccc(S(=O)(=O)N2CCN(S(=O)(=O)c3c(F)cccc3F)CC2)cc1 [DASA-23, reference compound] | 90 | selectivity for PKM2 relative to other PK enzymes |  |  |  |  |  |  |  |  | 
2 | [11CH3]Oc1ccc(S(=O)(=O)N2CCN(S(=O)(=O)c3c(F)cccc3F)CC2)cc1 [[^11C]DASA-23] |  |  | successfully detected orthotopically growing human glioblastoma |  |  |  |  |  |  |  | 
3 | COc1ccc(S(=O)(=O)N2CCN(S(=O)(=O)c3c(F)cccc3[18F])CC2)cc1 [[^18F]DASA-23, 1-((2-Fluoro-6-(Fluoro-^18F)Phenyl)Sulfonyl)-4-((4-Methoxyphenyl)Sulfonyl)Piperazine] | 90 | selective activation of PKM2 |  | 11.4±2.2 % of total tracer/mg protein | 21.0±2.0 % of total tracer/mg protein | clearly delineated from the surrounding normal brain tissue | dramatic reduction in tumor uptake | 95.8 | stable | 95.7 | stable

Reference: US10675366B2, “Imaging tumor glycolysis by non-invasive measurement of pyruvate kinase M2” (The Board of Trustees of the Leland Stanford Junior …, priority 2016, dated 2020)
